In brackets after ≈: the same amount, converted by molar mass. Non-standard residues stand in square brackets, D forms with d. Residues, ends and D or L forms follow the SMILES beside them. N(1-naphthylmethyl)Gly = O=C(O)CNCc1cccc2ccccc12; d1Nal = N[C@H](Cc1cccc2ccccc12)C(=O)O; N(4-MeBn)Gly = Cc1ccc(CNCC(=O)O)cc1; dNle = CCCC[C@@H](N)C(=O)O; NBuGly = CCCCNCC(=O)O; Nlys = NCCCCNCC(=O)O
Columns and labels:
[1] = system: clinical MRSP strain C22963; assay: Time–kill kinetics; assay type: cell-based, Staphylococcus pseudintermedius; conditions: for log reduction in time–kill: after 6 h, MRSP C22963, 10^5 CFU/mL in MHB
Protocol: The time–kill experiments of D2 against the methicillin-resistant S. pseudintermedius strain C22963 were performed using an in-house protocol adopted and modified from Blondeau et al.: the bacterium was grown overnight on a blood agar plate. The next day, an inoculum was transferred to MHB and incubated for 2 h at 37 °C to reach exponential growth phase. […] Aliquots were removed at 1 h intervals up to 6h and spotted in triplicate on blood agar plates, and incubated overnight at 37 °C. Colonies were counted and CFU per mL was calculated.

[2] = system: other selected dog pathogens; assay: MIC against other selected dog pathogens; assay type: cell-based; conditions: summary of Table 4, except for P. mirabilis
Text: We screened the antimicrobial activity of D2 and the analogue D2D against a number of canine pathogens (Table 4). These included Acinetobacter baumannii, Escherichia coli, Enterococcus faecalis, and Klebsiella pneumoniae isolated from wounds, Corynebacterium auriscanis associated with canine otitis externa, the nosocomial pathogen Enterococcus faecium, the endocartitis-causing Streptococcus canis, and Proteus mirabilis
To explore the antimicrobial activity of the library of peptides and peptidomimetics, they were tested against Acinetobacter baumannii, Corynebacterium auriscanis, Escherichia coli, Enterococcus faecalis, Enterococcus faecium, Klebsiella pneumonia, Proteus mirabilis, and Pseudomonas aeruginosa. Bacteria grown on agar plates for 18 h at 37 °C were diluted to ~1 × 10^8 CFU/mL in Mueller–Hinton broth (MHB). Two-fold serial dilutions of peptides and peptidomimetics in MHB II were inoculated with bacteria to achieve a final concentration of 5 × 10^5 CFU/mL in polypropylene 96 U-well microtiter plates (Almeco, Esbjerg, Denmark), followed by incubation at 37 °C in ambient air for 18 h. The MIC values were determined as the lowest concentration showing no visible bacterial growth. Experiments were performed twice (in technical triplicates) on two different days.

[3] = system: membrane proton motive force of E104 cells; assay: DiSC3(5) fluorescence, membrane depolarization; assay type: cell-based, Staphylococcus pseudintermedius; conditions: 0.5× MIC, n = 2
Text: In this study, the DiSC3(5) probe was used to assess the effect of D2 and its structural analogues D2L, D2D, and D2R on cytoplasmic membrane depolarization. DiSC3(5) is a cationic carbocyanine dye, which accumulates on negatively charged membrane, translocates into lipid membrane with a distribution dependent on plasma and mitochondrial membrane potential. Altered emission profile of DiSC3(5) measured via fluorescence spectroscopy indicates membrane depolarization caused by proton motive force dissipation, ATP production and/or pore formation. The increment of DiSC3(5) fluorescence of labeled cells resulting from its leakage upon addition of antimicrobial agents is usually measured over time. The protonophore carbonyl cyanide metachlorophenyl hydrazone (CCCP) is used as positive control, which rapidly dissipates PMF increasing proton permeability, alters both membrane proton gradient and transmembrane electric potential and decreases cellular ATP content. Based on the MIC and growth analysis results, sub-lethal concentrations of D2 and selected analogues were chosen to perform DiSC3(5) fluorescence and macromolecule biosynthesis studies.
Freshly grown E104 cells with OD 0.2 at 600 nm were labeled with 1 µM 3,3-dipropylthiadicarbocyanine iodide [DiSC3(5)] (Sigma-Aldrich, Søborg, Denmark) in MHB. The fluorescence spectra of fluorophore-labeled cells were plotted using the LS-50B luminescence spectrometer (PerkinElmer, Waltham, MA, USA) at excitation/emission wavelengths 546 nm/573 nm using time drive application of FLWINLAB software. After reading initial stable emission spectra of DiSC3(5), labeled cells were exposed with D2 or analogues or nisin or protonophore CCCP by directly injecting the concentrated solution of agent to the cuvette, and the change of fluorescence over time was recorded until emission spectra reached to stability. The increment of DiSC3(5) fluorescence upon addition of antimicrobials or CCCP (FUafter-exposure – FUbefore-exposure) was calculated and plotted in addition to raw fluorescence spectra. Experiment was performed twice and average fluorescence change was plotted with standard deviation.

[4] = system: Klebsiella pneumoniae, 26233; assay type: cell-based; conditions: 26233, 18 h
[5] = system: Enterococcus faecalis, 27404; assay type: cell-based; conditions: 27404, 18 h
[6] = system: Corynebacterium auriscanis, 31551; assay type: cell-based; conditions: 18 h
[7] = system: Acinetobacter baumannii, 27065; assay type: cell-based; conditions: 27065, 18 h
Proteus mirabilis, 25178 = assay type: cell-based; conditions: 25178, 18 h
[8] = cited from earlier work
Text: We have previously described a promising antimicrobial peptoid, D2, which is active against MRSP and P. aeruginosa, resistant to plasma proteases and hepatic clearance in vitro, and is suitable for topical administration to treat superficial pyoderma. In the present study, we investigated the structural features responsible for antimicrobial activity of D2 by (a) performing Gly-scan to analyze the residues crucial for activity; (b) investigating the effects of single substitution in order to increase activity; (c) exploring the effect of the peptoid backbone by exchanging L- and D- amin ...

[9] = system: S. pseudintermedius isolates from canine infections; assay type: cell-based, Staphylococcus pseudintermedius; conditions: 50 isolates from canine infections

| Structure (SMILES) | time to killing to bacterial levels below the detection threshold ([1]; 1× MIC, MRSP C22963) [min] | MIC range against other selected dog pathogens [2] [µg/mL] | effect on PMF (membrane depolarization, DiSC3(5) fluorescence) [3] | MIC Klebsiella pneumoniae [4] [µg/mL] | MIC Enterococcus faecalis [5] [µg/mL] | MIC Corynebacterium auriscanis [6] [µg/mL] | MIC Acinetobacter baumannii [7] [µg/mL] | MIC Proteus mirabilis (Proteus mirabilis, 25178) [µg/mL] | log reduction in time–kill ([1]; 1× MIC) [log] | log reduction in time–kill ([1]; 2× MIC) [log] | resistance to hepatic clearance [8] | resistance to plasma proteases [8] | MIC range, panel of 50 S. pseudintermedius isolates [9] [µM] |
| --- | --- | --- | --- | --- | --- | --- | --- | --- | --- | --- | --- | --- | --- |
| CCCC[C@@H](NC(=O)[C@@H](CCCCN)NC(=O)[C@@H](Cc1cccc2ccccc12)NC(=O)[C@@H](CCCCN)NC(=O)[C@@H](Cc1ccccc1)NC(=O)[C@@H](Cc1cccc2ccccc12)NC(=O)[C@@H](CCCCN)NC(=O)[C@H](N)CCCCN)C(N)=O [D2D] (H-[dK][dK][d1Nal][dF][dK][d1Nal][dK][dNle]-NH2) | 30 | 2 to 16 | lowest activity on PMF | 8 (≈ 6.75 µM) | 8 (≈ 6.75 µM) | 2 (≈ 1.69 µM) | 16 (≈ 13.5 µM) | >64 | – | – | – | – | – |
| CCCCN(CC(N)=O)C(=O)CN(CCCCN)C(=O)CN(Cc1cccc2ccccc12)C(=O)CN(CCCCN)C(=O)CN(Cc1ccc(C)cc1)C(=O)CN(Cc1cccc2ccccc12)C(=O)CN(CCCCN)C(=O)CNCCCCN [D2] (H-[Nlys][Nlys][N(1-naphthylmethyl)Gly][N(4-MeBn)Gly][Nlys][N(1-naphthylmethyl)Gly][Nlys][NBuGly]-NH2) | – | – | – | >64 | >64 | 2 (≈ 1.67 µM) | >64 | >64 | 1.5 | 2.7 | resistant | resistant | 1.56 to 3.12 |
